# Where two headings read alike, the source gives them in different places.
# Biological target: T1, NS3-NS4 protease (full-length NS3/NS4A-2) (Hepatitis C virus genotype 1a, UniProt P27958)
# T1 construct: Recombinant E. coli or Baculovirus full-length NS3 was diluted to 3.33 μM with assay buffer; made in house; host or cells: E. coli or baculovirus (insect cells)
# Assay: NS3-NS4 protease assay / NS3 inhibition assay (RETS1 substrate, fluorescence kinetic read)
# Format: biochemical
# Procedure: NS3 complex formation with NS4A-2.
# The appropriate amount of NS4A-2 to 8.3 mM in assay buffer was added to equal the volume of NS3 in step 2.1.1 (conversion factor—3.8 mg/272 μL assay buffer). The material was transferred to an eppendorf tube and place in water bath in 4° C. refrigerator.
# After equilibration to 4° C., equal volumes of NS3 and NS4A-2 solutions were combined in an eppendorf tube, mix gently with a manual pipettor, and incubate mixture for 15 minutes in the 4° C. water bath.
# After 15 minutes at 4° C., the NS3/NS4A-2 eppendorf tube was removed and place it in a room temperature water bath for 10 minutes. NS3/NS4A-2 was alliquoted at appropriate volumes and store at −80° C. (E. coli NS3 run at 2 nM in assay, aliquot at 25 μL. BV NS3 run at 3 nM in assay, aliquot at 30 μL).
# Sample compounds were dissolved to 10 mM in DMSO then diluted to 2.5 mM (1:4) in DMSO.
# The E. coli. […] Using the manual multichannel pipettor, careful not to introduce bubbles into the plate, add 50 μL assay buffer to wells A01-H01 of a black Costar 96-well polypropylene storage plate.
# Using the manual multichannel pipettor, careful not to introduce bubbles into the plate, add 50 μL of diluted NS3/NS4A-2 from step 2.2.6 to wells A02-H12 of plate in step 2.2.7. Using the manual multichannel pipettor, careful not to introduce bubbles into the plate, transfer 25 μL of the wells in drug dilution plate in step 2.2.5 to corresponding wells in assay plate in step 2.2.8. Change tips on multichannel pipettor for each row of compounds transferred. Using the manual multichannel pipettor, careful not to introduce bubbles into the plate, mix the wells from the assay plate in step 2.2.9 by aspirating and dispensing 35 μL of the 75 μL in each well five times. Change tips on multichannel pipettor for each row of wells mixed. Cover plate with a polystyrene plate lid and pre-incubate the plate from step 2.2.10 containing NS3 protease and sample compounds 10 minutes at room temperature. While plate from step 2.2.11 is pre-incubating, dilute RETS1 substrate in a 15 mL polypropylene centrifuge tube.
# After the plate in step is done pre-incubating, and using the manual multichannel, add 25 μL of substrate to all wells on the plate. Quickly mix the plate as in step 2.2.10, mixing 65 μL of the 100 μL in the wells.
# Read the plate in kinetic mode on the Molecular Devices SpectraMax
# IC50s are determined using a four parameter curve fit equation, and converted to Ki's using the following Km's:
# where Ki=IC50/(1+[S]/Km))
# [1] = Table 22, read-out: NS3-NS4 IC50
# T1 sequence (P27958 1027-1657): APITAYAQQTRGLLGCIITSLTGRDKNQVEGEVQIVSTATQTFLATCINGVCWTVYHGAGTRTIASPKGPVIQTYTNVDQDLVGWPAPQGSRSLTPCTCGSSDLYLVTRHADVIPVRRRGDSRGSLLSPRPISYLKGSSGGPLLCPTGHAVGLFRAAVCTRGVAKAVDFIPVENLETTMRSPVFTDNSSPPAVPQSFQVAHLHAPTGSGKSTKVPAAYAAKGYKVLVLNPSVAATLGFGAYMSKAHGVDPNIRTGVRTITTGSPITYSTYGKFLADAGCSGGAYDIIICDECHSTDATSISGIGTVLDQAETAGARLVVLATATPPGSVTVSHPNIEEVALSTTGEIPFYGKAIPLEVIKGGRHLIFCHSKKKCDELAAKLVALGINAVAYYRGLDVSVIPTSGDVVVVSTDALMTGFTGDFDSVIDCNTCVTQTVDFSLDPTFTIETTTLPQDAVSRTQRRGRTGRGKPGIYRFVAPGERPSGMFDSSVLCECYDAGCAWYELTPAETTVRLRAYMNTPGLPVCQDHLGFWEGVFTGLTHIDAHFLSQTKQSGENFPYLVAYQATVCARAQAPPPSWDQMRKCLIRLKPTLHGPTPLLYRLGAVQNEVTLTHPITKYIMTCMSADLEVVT
Structure (SMILES),IC50 (read-out: NS3-NS4 IC50),also measured
"O=C(N[C@H]1CCCCC/C=C\[C@@H]2C[C@@]2(C(=O)NS(=O)(=O)C2CC2)NC(=O)[C@@H]2C[C@@H](OC(=O)N3Cc4cccc(F)c4C3)CN2C1=O)C(O)C(F)(F)F (single isomer, unassigned) [Compound 247]",–,IC50: < 0.1 µM
CC(C)OC(=O)N[C@H]1CCCCC/C=C\[C@@H]2C[C@@]2(C(=O)NS(=O)(=O)Nc2ccc(Cl)cc2)NC(=O)[C@@H]2CCCN2C1=O [Compound 418],> 10 µM,–
CCOC(=O)[C@@]12C[C@H]1/C=C\CCCCC[C@H](NC(=O)OC(C)(C)C)C(=O)N1Cc3ccc(Oc4cccc(Cl)c4)cc3CC1C(=O)N2 (stereo partly shown) [Compound 2006],< 1 µM,–
CC(C)(C)OC(=O)N[C@H]1CCCCC/C=C\[C@@H]2C[C@@]2(C(=O)NS(=O)(=O)c2ccccc2)NC(=O)[C@@H]2CCCN2C1=O [Compound 2101],< 10 µM,–
CC(C)(C)OC(=O)N[C@H]1CCCCC/C=C\[C@@H]2C[C@@]2(C(=O)NS(=O)(=O)c2ccc([N+](=O)[O-])cc2)NC(=O)[C@@H]2CCCN2C1=O [Compound 2102],< 10 µM,–
CC(C)(C)OC(=O)N[C@H]1CCCCC/C=C\[C@@H]2C[C@@]2(C(=O)NS(C)(=O)=O)NC(=O)[C@@H]2CCCN2C1=O [Compound 2103],< 1 µM,–
CC(C)S(=O)(=O)NC(=O)[C@@]12C[C@H]1/C=C\CCCCC[C@H](NC(=O)OC(C)(C)C)C(=O)N1CCC[C@H]1C(=O)N2 [Compound 2104],< 10 µM,–
CCCS(=O)(=O)NC(=O)[C@@]12C[C@H]1/C=C\CCCCC[C@H](NC(=O)OC(C)(C)C)C(=O)N1CCC[C@H]1C(=O)N2 [Compound 2105],< 1 µM,–
CCCCS(=O)(=O)NC(=O)[C@@]12C[C@H]1/C=C\CCCCC[C@H](NC(=O)OC(C)(C)C)C(=O)N1CCC[C@H]1C(=O)N2 [Compound 2106],< 0.1 µM,–
CC(C)(C)OC(=O)NC1CCCCCC=CC2CC2(C(=O)NS(=O)(=O)C(F)(F)F)NC(=O)C2CCCN2C1=O (stereo not shown) [Compound 2107],< 1 µM,–
CC(C)(C)OC(=O)NC1CCCCCC=CC2CC2(C(=O)NS(=O)(=O)c2cc(Cl)cc(Cl)c2)NC(=O)C2CCCN2C1=O (stereo not shown) [Compound 2108],< 10 µM,–
CC(C)(C)OC(=O)NC1CCCCCC=CC2CC2(C(=O)NS(=O)(=O)c2ccccc2Cl)NC(=O)C2CCCN2C1=O (stereo not shown) [Compound 2109],< 10 µM,–
CC(C)(C)OC(=O)N[C@H]1CCCCC/C=C\[C@@H]2C[C@@]2(C(=O)NS(=O)(=O)c2cnccc2Cl)NC(=O)[C@@H]2CCCN2C1=O [Compound 2128],< 10 µM,–
CC(C)(C)OC(=O)N[C@H]1CCCCC/C=C\[C@@H]2C[C@@]2(C(=O)NS(=O)(=O)c2ccc(Cl)cc2)NC(=O)[C@@H]2CCCN2C1=O [Compound 2129],< 10 µM,–
Cc1ccc(CC(=O)N[C@H]2CCCCC/C=C\[C@@H]3C[C@@]3(C(=O)NS(=O)(=O)C3CC3)NC(=O)C3CCCN3C2=O)cc1 (stereo partly shown) [Compound 2140],> 10 µM,–
"CO[C@@H]1C[C@H]2C(=O)N[C@]3(C(=O)NS(=O)(=O)C4CC4)C[C@H]3/C=C\CCCCC[C@H](NC(=O)OC(C)(C)C)C(=O)N2C1 [Compound 2146, 1S,4R,6S,14S,18R)-tert-Butyl 4-cyclopropylsulfonylaminocarbonyl-2,15-dioxo-3,16-diaza-18-methoxy-tricyclo[14.3.0.0^4,6]nonadec-7-ene-14-yl carbamate]",> 10 µM,–
CC(C)(C)OC(=O)N[C@H]1CCCCC/C=C\[C@@H]2C[C@@]2(C(=O)NS(=O)(=O)c2cccc3ccccc23)NC(=O)[C@@H]2CCCN2C1=O [Compound 2148],< 10 µM,–
CC(C)(C)OC(=O)N[C@H]1CCCCC/C=C\[C@@H]2C[C@@]2(C(=O)NS(=O)(=O)c2ccc(Cl)cc2Cl)NC(=O)[C@@H]2CCCN2C1=O [Compound 2153],< 10 µM,–
CC(C)N(C(C)C)S(=O)(=O)NC(=O)[C@@]12C[C@H]1/C=C\CCCCC[C@H](NC(=O)OC(C)(C)C)C(=O)N1CCC[C@H]1C(=O)N2 [Compound 2209],< 1 µM,–
CC(C)(C)OC(=O)N[C@H]1CCCCC/C=C\[C@@H]2C[C@@]2(C(=O)NS(=O)(=O)NC2CCC2)NC(=O)[C@@H]2CCCN2C1=O [Compound 2214],< 1 µM,–
CC(C)(C)OC(=O)N[C@H]1CCCCC/C=C\[C@@H]2C[C@@]2(C(=O)NS(=O)(=O)NC2CCCC2)NC(=O)[C@@H]2CCCN2C1=O [Compound 2215],< 1 µM,–
CCNS(=O)(=O)NC(=O)[C@@]12C[C@H]1/C=C\CCCCC[C@H](NC(=O)OC(C)(C)C)C(=O)N1CCC[C@H]1C(=O)N2 [Compound 2216],< 10 µM,–

Structure (SMILES),IC50 (read-out: NS3-NS4 IC50),also measured
CCCNS(=O)(=O)NC(=O)[C@@]12C[C@H]1/C=C\CCCCC[C@H](NC(=O)OC(C)(C)C)C(=O)N1CCC[C@H]1C(=O)N2 [Compound 2217],< 1 µM,–
CC(C)CNS(=O)(=O)NC(=O)[C@@]12C[C@H]1/C=C\CCCCC[C@H](NC(=O)OC(C)(C)C)C(=O)N1CCC[C@H]1C(=O)N2 [Compound 2218],< 0.1 µM,–
CC(C)(C)OC(=O)N[C@H]1CCCCC/C=C\[C@@H]2C[C@@]2(C(=O)NS(=O)(=O)N2CCCCC2)NC(=O)[C@@H]2CCCN2C1=O [Compound 2219],< 10 µM,–
CCC1CCCCN1S(=O)(=O)NC(=O)[C@@]12C[C@H]1/C=C\CCCCC[C@H](NC(=O)OC(C)(C)C)C(=O)N1CCC[C@H]1C(=O)N2 (stereo partly shown) [Compound 2220],< 1 µM,–
COC(=O)C1CCCCN1S(=O)(=O)NC(=O)[C@@]12C[C@H]1/C=C\CCCCC[C@H](NC(=O)OC(C)(C)C)C(=O)N1CCC[C@H]1C(=O)N2 (stereo partly shown) [Compound 2221],< 1 µM,–
CC(C)(C)OC(=O)N[C@H]1CCCCC/C=C\[C@@H]2C[C@@]2(C(=O)NS(=O)(=O)NC2CC2c2ccccc2)NC(=O)[C@@H]2CCCN2C1=O (stereo partly shown) [Compound 2224],< 10 µM,–
CC1CCCCN1S(=O)(=O)NC(=O)[C@@]12C[C@H]1/C=C\CCCCC[C@H](NC(=O)OC(C)(C)C)C(=O)N1CCC[C@H]1C(=O)N2 (stereo partly shown) [Compound 2225],< 10 µM,–
CC(C)(C)OC(=O)N[C@H]1CCCCC/C=C\[C@@H]2C[C@@]2(C(=O)NS(=O)(=O)Nc2ccc(Cl)c(Cl)c2)NC(=O)[C@@H]2CCCN2C1=O [Compound 2234],< 1 µM,–
CCc1ccc(NS(=O)(=O)NC(=O)[C@@]23C[C@H]2/C=C\CCCCC[C@H](NC(=O)OC(C)(C)C)C(=O)N2CCC[C@H]2C(=O)N3)cc1 [Compound 2242],< 1 µM,–
COc1ccc(NS(=O)(=O)NC(=O)[C@@]23C[C@H]2/C=C\CCCCC[C@H](NC(=O)OC(C)(C)C)C(=O)N2CCC[C@H]2C(=O)N3)cc1 [Compound 2244],< 0.1 µM,–
CC(C)(C)OC(=O)N[C@H]1CCCCC/C=C\[C@@H]2C[C@@]2(C(=O)NS(=O)(=O)NCC2CC2)NC(=O)[C@@H]2CCCN2C1=O [Compound 2245],< 0.1 µM,–
CC(C)(C)OC(=O)N[C@H]1CCCCC/C=C\[C@@H]2C[C@@]2(C(=O)NS(=O)(=O)Nc2ccccc2)NC(=O)[C@@H]2CCCN2C1=O [Compound 2246],< 1 µM,–
CC(C)(C)OC(=O)N[C@H]1CCCCC/C=C\[C@@H]2C[C@@]2(C(=O)NS(=O)(=O)Nc2ccc(Cl)cc2)NC(=O)[C@@H]2CCCN2C1=O [Compound 2247],> 10 µM,–
CN(CCc1ccccc1)S(=O)(=O)NC(=O)[C@@]12C[C@H]1/C=C\CCCCC[C@H](NC(=O)OC(C)(C)C)C(=O)N1CCC[C@H]1C(=O)N2 [Compound 2248],< 10 µM,–
CN(CC#N)S(=O)(=O)NC(=O)[C@@]12C[C@H]1/C=C\CCCCC[C@H](NC(=O)OC(C)(C)C)C(=O)N1CCC[C@H]1C(=O)N2 [Compound 2249],< 1 µM,–
C[C@H](NC(=O)[C@@]12C[C@H]1/C=C\CCCCC[C@H](NC(=O)OC(C)(C)C)C(=O)N1CCC[C@H]1C(=O)N2)c1ccccc1 [Compound 2301],–,IC50 [1]: < 10 µM
CC(C)(C)OC(=O)N[C@H]1CCCCC/C=C\[C@@H]2C[C@@]2(C(=O)NC2CCC2)NC(=O)[C@@H]2CCCN2C1=O [Compound 2303],–,IC50 [1]: < 1 µM
CC(C)(C)OC(=O)N[C@H]1CCCCC/C=C\[C@@H]2C[C@@]2(C(=O)Nc2ccc(F)cc2)NC(=O)[C@@H]2CCCN2C1=O [Compound 2304],–,IC50 [1]: < 1 µM
CC(C)(C)OC(=O)N[C@H]1CCCCC/C=C\[C@@H]2C[C@@]2(C(=O)NC#N)NC(=O)[C@@H]2CCCN2C1=O [Compound 2306],–,IC50 [1]: < 1 µM
CC(C)(C)OC(=O)N[C@H]1CCCCC/C=C\[C@@H]2C[C@@]2(C(=O)NCc2ccccc2)NC(=O)[C@@H]2CCCN2C1=O [Compound 2307],–,IC50 [1]: < 1 µM
CC(C)(C)OC(=O)N[C@H]1CCCCC/C=C\[C@@H]2C[C@@]2(C(=O)NCc2ccc(Cl)cc2)NC(=O)[C@@H]2CCCN2C1=O [Compound 2308],–,IC50 [1]: < 1 µM

# Source: patent US8299021B2, “Macrocyclic inhibitors of hepatitis C virus replication” (InterMune, Inc., priority 2005, dated 2012)
